Where two headings read alike, the source gives them in different places.
Experiments:
[1] = system: human iPSC-derived neurons; format: cell-based
[2] = system: mouse hippocampal neurons; assay: Pharmacological stimulation and inhibition of neurons recorded on the vertical Si nanowire probe array; format: cell-based

| Molecule | firing (rate) of spontaneous action potentials [1] | cellular activity / neuronal spiking [2] | firing (rate) of spontaneous action potentials [2] | activity relative to the baseline recording ([2]; extracellular configuration, injection, nanowire recording) | activity relative to the baseline recording [2] | cell activity (frequency and amplitude) compared to the baseline spontaneous activity measured on the same channel ([2]; intracellular configuration, injection, nanowire recording) |
| --- | --- | --- | --- | --- | --- | --- |
| [Cl-].[K+] [KCl] | increased firing rate | increased | increased firing rate | increased activity relative to the baseline recording |  |  |
| NC1=N[C@H](O)[C@H]2[C@H]3O[C@]4(O)O[C@@H]([C@@H](O)[C@@]2(N1)[C@@H]4O)[C@]3(O)CO [TTX, tetrodotoxin] |  | neuronal spiking vanished |  |  | eliminated |  |
| glutamate |  | increased |  |  |  | increase of the cell activity with respect to frequency and amplitude |
